Results published in PubChem BioAssay (NCI).
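Exposure lasted 48 hours, with cells grown in 96-well plates and compounds tested at five concentrations. GI50: concentration for 50% inhibition of growth. TGI denotes the concentration required for complete inhibition of growth.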

Key:
Experiment in all cases: NCI-60 cell line screen, 48 h
[1] = test system: 786-0 renal
[2] = test system: M14 melanoma
[3] = test system: BT-549 breast
[4] = test system: RPMI-8226 leukemia
[5] = test system: SK-MEL-5 melanoma
[6] = test system: SK-MEL-2 melanoma
[7] = test system: T-47D breast
[8] = test system: IGROV1 ovarian
[9] = test system: SF-268 CNS
[10] = test system: SNB-75 CNS

Compound | GI50 [1] | TGI [1] | GI50 [2] | TGI [2] | GI50 [3] | TGI [3] | GI50 [4] | TGI [4] | GI50 [5] | TGI [5] | GI50 [6] | TGI [6] | GI50 [7] | TGI [7] | GI50 [8] | TGI [8] | GI50 [9] | TGI [9] | GI50 [10] | TGI [10]
CCNC(=O)[C@@H]1CCCN2C(=O)CC[C@H](NC(=O)[C@H](Cc3ccc(OP(=O)(O)O)cc3)NC(C)=O)C(=O)N12 | > 25 µM | > 25 µM | > 25 µM | > 25 µM | > 25 µM | > 25 µM | > 25 µM | > 25 µM | > 25 µM | > 25 µM | > 25 µM | > 25 µM | > 25 µM | > 25 µM | > 25 µM | > 25 µM | > 25 µM | > 25 µM | > 25 µM | > 25 µM
Cc1ccc([N+](=O)[O-])cc1NC(=O)Nc1cccc(F)c1 | 14.1 µM | > 100 µM | 22.1 µM | > 100 µM | 45.1 µM | > 100 µM | 2.82 µM | 20.7 µM | 4.04 µM | > 100 µM | 8.82 µM | 89.2 µM | 3.45 µM | > 100 µM | 5.78 µM | 35.9 µM | 6.9 µM | > 100 µM | 11.6 µM | 37.1 µM
COc1ccc2oc(=O)cc(C(c3ccc[nH]3)c3ccc[nH]3)c2c1 | 0.281 µM | 11.5 µM | 0.0837 µM | 0.191 µM | < 0.0505 µM | 0.389 µM | 0.376 µM | 3.64 µM | 0.08 µM | 0.141 µM | 0.616 µM | 13.2 µM | 0.118 µM | 26.6 µM | 0.106 µM | 17.6 µM | 0.129 µM | 16.3 µM | 0.123 µM | 11.8 µM
Nc1c(C(=O)c2cccc(CCCN3CCOCC3)c2)cnn1-c1ccc(F)cc1 | > 25 µM | > 25 µM | > 25 µM | > 25 µM | > 25 µM | > 25 µM | > 25 µM | > 25 µM | 24.7 µM | > 25 µM | > 25 µM | > 25 µM | > 23.7 µM | > 25 µM | > 25 µM | > 25 µM | > 25 µM | > 25 µM | > 25 µM | > 25 µM
CCCCON(OC(=O)c1ccccc1)C(=O)c1ccccc1 | > 100 µM | > 100 µM | > 100 µM | > 100 µM | > 100 µM | > 100 µM | > 100 µM | > 100 µM | > 100 µM | > 100 µM | > 100 µM | > 100 µM | > 100 µM | > 100 µM | > 100 µM | > 100 µM | > 100 µM | > 100 µM | > 100 µM | > 100 µM
O=[N+]([O-])c1ccc(S(=O)(=O)Cc2ccccc2)c([N+](=O)[O-])c1 |  | 2.98 µM |  | 3.37 µM |  | 5.12 µM |  | 5.78 µM |  | 4.9 µM |  | 8.62 µM |  | 4.48 µM |  | 6.36 µM |  | 14.5 µM |  | 21.2 µM
C=C1C(=O)O[C@H]2[C@H]1CC/C(CNC(=O)Cc1c[nH]c3ccccc13)=C\CC[C@@]1(C)O[C@@H]21 | 1.22 µM | 4.98 µM | 0.641 µM | 9.8 µM | 3.04 µM | 15.8 µM | 0.486 µM | 3.96 µM | 7.32 µM | 20.3 µM | 6.46 µM | 22.2 µM | 1.07 µM | 8.16 µM | 0.833 µM | 9.06 µM | 2.62 µM | 16.3 µM | 12.8 µM | 35.5 µM
COc1cccc(C2c3cc4c(cc3OC(C)(N3CCCC3)C2C)OCO4)c1OC (stereo not given) |  | > 100 µM |  | 45.5 µM |  | 32.6 µM |  | > 100 µM |  | 28.4 µM |  | 27 µM |  | 46.6 µM |  | > 100 µM |  | 81.3 µM |  | 94.3 µM
COc1cc(C(=O)/C=C/c2c(C)n([O-])c3ccc(C)cc3[n+]2=O)cc(OC)c1OC | 7.62 µM | 21.7 µM | 4.27 µM | 10.3 µM | 8.06 µM | 33.2 µM | 2.87 µM | 17.6 µM | 14.8 µM | 28 µM | 15 µM | 31.2 µM | 2.23 µM | 5.81 µM | 3.8 µM | 13 µM | 12.3 µM | 29.5 µM | 14.5 µM | 31.7 µM
N=C(N)c1ccc(OCc2cccc(COc3ccc(C(=N)N)cc3)c2)cc1 | 4.56 µM | 15.1 µM | 2.83 µM | 7.35 µM | 3.41 µM | 9.37 µM | 3.11 µM | 7.88 µM | 1.96 µM | 4.28 µM | 24.2 µM | > 100 µM | 26.9 µM | > 100 µM | 22.2 µM | > 100 µM | 5.53 µM | 18.5 µM | 11.3 µM | 31.2 µM
Cc1ccc2c(c1)C(C)Cc1c(ncnc1-n1cnc3ccccc31)N2C (stereo not given) | 0.737 µM | 19.8 µM | 0.242 µM | 15.7 µM | 1.37 µM | 20.6 µM | 0.337 µM | 15.9 µM | 0.434 µM | 10.2 µM | 0.547 µM | 21.9 µM | 0.601 µM | 32.2 µM | 1.17 µM | 28.4 µM | 1.19 µM | 17.7 µM | 0.3 µM | 20.1 µM
O=C(O)CCNc1ccccc1C(=O)O |  | > 100 µM |  | > 100 µM |  | > 100 µM |  | > 100 µM |  | > 100 µM |  | > 100 µM |  | > 100 µM |  | > 100 µM |  | > 100 µM |  | > 100 µM
Clc1ccc(CSC(Cn2ccnc2)c2ccc(Cl)cc2Cl)cc1 (stereo not given) | 1.61 µM | 3.13 µM | 1.69 µM | 3.12 µM | 1.63 µM | 3.05 µM | 1.38 µM | 4.49 µM | 1.61 µM | 2.96 µM | 1.52 µM | 3 µM | 0.999 µM | 2.76 µM | 1.74 µM | 4.55 µM | 1.66 µM | 3.83 µM | 2.13 µM | 8.04 µM
COc1ccccc1NC(=O)c1sc2nc3c(cc2c1N)C(=O)CCC3 | 4.05 µM | > 100 µM | 2.86 µM | > 100 µM | 4.43 µM | > 100 µM | > 100 µM | > 100 µM | 1.62 µM | > 100 µM | 1.81 µM | > 100 µM | > 100 µM | > 100 µM | 8.15 µM | > 100 µM | 5.06 µM | > 100 µM | 2.36 µM | 9.42 µM
O=C(NC1CCN(Cc2ccccc2)CC1)c1cc(-c2ccncc2)nc2ccc(Cl)cc12 | 6.84 µM | 28.7 µM | 7.02 µM | 34.9 µM | 17.2 µM | 99.9 µM | 12.4 µM | > 74 µM | 9.07 µM | 21.7 µM | 29.8 µM | 87.1 µM | 13.3 µM | 49.1 µM | 18.5 µM | > 100 µM | 22.6 µM | > 100 µM | 2.43 µM | 30.4 µM
N#Cc1c(-c2ccccc2)nc(SCC2CO2)nc1N1CCOCC1 (stereo not given) | 4.12 µM | > 46.1 µM | 13.4 µM | > 100 µM | 5.89 µM | > 94.1 µM | 9.41 µM | 72.9 µM | 10.2 µM | > 100 µM | 14.7 µM | 75.7 µM | 2.74 µM | 16.4 µM | 2.6 µM | 25.9 µM | 13.1 µM | > 100 µM | 1.91 µM | > 82.6 µM
CCOC(=O)c1c2c(c(O)c3ccccc3c(O)n(Cc3ccc(OC)cc3)c1C)C(=O)C=CC2=O | > 100 µM | > 100 µM | > 100 µM | > 100 µM | > 100 µM | > 100 µM | > 100 µM | > 100 µM | > 100 µM | > 100 µM | > 100 µM | > 100 µM | > 100 µM | > 100 µM | > 100 µM | > 100 µM | > 100 µM | > 100 µM | > 100 µM | > 100 µM
C/C(=N\NC(=O)c1sc(=S)n(C)c1N)c1cc2ccccc2o1 | 14.9 µM | 29.8 µM | 14.7 µM | 40.5 µM | 18.3 µM | 41.8 µM | 12.5 µM | 49.4 µM | 10.8 µM | 30.1 µM | 14 µM | 37 µM | 18.6 µM | > 100 µM | 21.4 µM | > 100 µM | 14.4 µM | 37.4 µM | 17.3 µM | 42.6 µM
